Consider 7 compounds from patent US10618902B2, “Substituted pyrido[2,3-d]pyrimidines as inhibitors of protein kinases” (Celgene CAR LLC, priority 2013, dated 2020).

Entries after “also recorded” stand apart in the source; their conditions may differ. Like-named read-outs stand apart in the source and are kept apart here. A value given as a limit tells only on which side of the number the result lay.

The target of assay [1] is pFGFR4 in MDA-MB-453 cells (Homo sapiens (Human), UniProt P22455, Y367C). The experiment in a line: Washout experiment (duration of pFGFR4 inhibition). The class given is cell-based. The note with it: 1000-2000 nM for 1 hr, washed, up to 24 hr. The procedure:
The cells were allowed to settle down for 4 hrs and were then maintained in low-serum (0.1% FBS) media overnight.
The following morning, the media was removed and the cells were treated with 1000-2000 nM of test compound in low-serum media for 1 hr. The cells were washed free of test compound (3×) with PBS (Invitrogen). One set of cells was immediately lysed as indicated above as the 0 hr time point. The remaining cells were incubated with the appropriate complete growth media (10-20% FBS) for 1, 2, 4, 8, 16 (in certain circumstances) and 24 hr. DMSO (0.5%) controls were collected at all time points.

In assay [2] the target is FGFR4-WT (Homo sapiens (Human), UniProt P22455). The assay can be described thus: Omnia assay for potency against FGFR4 enzyme. In kind it is biochemical. The note with it: method a: FGFR4-WT (Invitrogen) 10 nM, ATP 300 uM, Y10-Sox 10 uM. The procedure:
A 10× stock solution of FGFR4-WT (PR4380C or P3054), (from Invitrogen, Carlsbad, Calif.) corresponding to method a in Table 10, was prepared as described below. Alternatively, a 10× stock solution of FGFR4-WT (F01-11G), (SignalChem, Richmond, BC) corresponding to method b in Table 10, was prepared as described below. A solution of 1.4×ATP (AS001A) and 5× Tyr-Sox conjugated peptide substrate (KNZ3101) were prepared in 1× kinase reaction buffer consisting of 20 mM Tris, pH 7.5, 5 mM MgCl2, 1 mM EGTA, 5 mM […], 5% glycerol (10× stock, KB002A) and 0.2 mM DTT (DS001A). […] The serially diluted compounds were prepared on a Tecan EVO100. A second addition of 10 μl of Tyr-Sox FGFR4 substrate was added to each well and the kinase reactions were started with the addition of 35 μL of 1.4×ATP. The reactions were monitored every 71 seconds for 240 minutes at λex360/λem485 in a Synergy plate reader from BioTek (Winooski, Vt.). […] Methods:
a) [FGFR4-WT]=10 nM, [ATP]=300 uM, [Y10-Sox]=10 uM (ATP KMapp−300 uM),

For assay [3], the system named is MDA-MB-453 cells. The experiment in a line: Cell proliferation, MDA-MB-453 (CellTiter Glo). The note with it: 96 hr. In kind it is cell-based. On the procedure: (§1) The growth inhibition (GI50) values were determined by Graph Pad Prism.
A general note: ATP-based viability assays read luminescence as a measure of living cells.

Assay [4] concerns the target pFGFR4 (Huh7 cells) (Homo sapiens (Human), UniProt P22455). The experiment in a line: FGFR4 signaling (pFGFR4) in Huh7 cells (MSD). The class given is cell-based. The note with it: read-out: Signaling EC50 (nM) pFGFR4 (Huh).
Assay [5] has as its system Huh7 cells. The assay can be described thus: Cell proliferation, Huh7 (CellTiter Glo). The class given is cell-based. On the procedure:
as §1

Setting [6] is: 120 hr, read-out: Cell Proliferation GI50 (nM) HUH.

Sequence of pFGFR4 in MDA-MB-453 cells (P22455 22-802 Y367C): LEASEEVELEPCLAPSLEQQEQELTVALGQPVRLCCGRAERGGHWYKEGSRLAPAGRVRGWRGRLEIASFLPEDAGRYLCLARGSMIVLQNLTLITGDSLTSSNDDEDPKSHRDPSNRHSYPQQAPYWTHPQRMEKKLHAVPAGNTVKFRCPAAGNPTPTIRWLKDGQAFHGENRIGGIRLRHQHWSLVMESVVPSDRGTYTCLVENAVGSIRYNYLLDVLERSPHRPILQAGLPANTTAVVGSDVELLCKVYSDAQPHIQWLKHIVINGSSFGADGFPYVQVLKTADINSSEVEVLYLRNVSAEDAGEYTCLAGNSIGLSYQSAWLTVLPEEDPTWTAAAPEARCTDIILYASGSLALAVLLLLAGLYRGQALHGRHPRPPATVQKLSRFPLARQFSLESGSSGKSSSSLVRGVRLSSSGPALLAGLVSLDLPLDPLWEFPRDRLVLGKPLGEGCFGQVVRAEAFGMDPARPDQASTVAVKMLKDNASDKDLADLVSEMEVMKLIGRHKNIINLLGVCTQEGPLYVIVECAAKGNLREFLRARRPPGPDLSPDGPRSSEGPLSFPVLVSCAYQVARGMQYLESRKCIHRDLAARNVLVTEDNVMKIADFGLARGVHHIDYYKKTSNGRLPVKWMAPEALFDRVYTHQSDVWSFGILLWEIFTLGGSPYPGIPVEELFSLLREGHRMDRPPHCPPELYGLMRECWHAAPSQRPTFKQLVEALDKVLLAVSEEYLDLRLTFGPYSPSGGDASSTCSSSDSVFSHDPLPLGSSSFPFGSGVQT
Sequence of pFGFR4 (Huh7 cells) (P22455 22-802): as the sequence (P22455 22-802 Y367C) above, with C346Y counted along it
Sequence of FGFR4-WT (P22455 22-802): as the sequence (P22455 22-802 Y367C) above, with C346Y counted along it

With `C=CC(=O)NC1CCCCC1Nc1ncc2c(n1)N(Cc1cscn1)C(=O)N(c1c(Cl)c(OC)cc(OC)c1Cl)C2` (racemic) [Compound I-69], the “duration of action against pFGFR4 signalling after washout” value (from here on “duration of action”) in assay [1] is reported as “prolonged duration of action; also recorded: prolonged inhibition of autophosphorylation of FGFR4”.
Consider `C=CC(=O)Nc1ccccc1Nc1ncc2c(n1)N(Cc1cccc(NC(=O)CC)c1)C(=O)N(c1c(Cl)c(OC)cc(OC)c1Cl)C2` [Compound I-1], for which, in assay [1], the “duration of action” value is on record as “has PDA; also recorded: prolonged duration of action”.
With `CCC(=O)Nc1cccc(CN2C(=O)N(c3c(Cl)c(OC)cc(OC)c3Cl)Cc3cnc(Nc4ccccc4NC(=O)CC)nc32)c1` [Compound I-234], the “duration of action” value in assay [1] is “does not have PDA; also recorded: does not show prolonged duration of action”.
Broadly, the IC50 is the concentration that gives 50% inhibition. As a reminder, the EC50 is the concentration at which the effect is half-maximal. Consider `C=CC(=O)Nc1cc(N2CCN(CC)CC2)ccc1Nc1ncc2cc(-c3c(Cl)c(OC)cc(OC)c3Cl)c(=O)n(C)c2n1` [Compound I-269], for which the IC50 in assay [2] was under 100 nM. Also, the GI50 in assay [3] (Homo sapiens) is under 100 nM; in assay [5] (Homo sapiens, Huh-7, 120 hr) it was 101 to 500 nM. The EC50 in assay [4] is under 100 nM.
Regarding `C=CC(=O)Nc1cc(-c2nnnn2C)ccc1Nc1ncc2cc(-c3c(Cl)c(OC)cc(OC)c3Cl)c(=O)n(C)c2n1` [Compound I-276], the IC50 in assay [2] is under 100 nM. For the same compound, the GI50 in assay [3] (Homo sapiens) is under 100 nM; in assay [5] (Homo sapiens, Huh-7, 120 hr) it was 101 to 500 nM. Besides, the EC50 in assay [4] was under 100 nM.
Turning to `C=CC(=O)Nc1ccc(F)c(F)c1Nc1ncc2cc(-c3c(Cl)c(OC)cc(OC)c3Cl)c(=O)n(C)c2n1` [Compound I-285], the concentration for half-maximal inhibition (IC50) in assay [2] is under 100 nM. Also, the GI50 in assay [3] and in assay [5] (setting [6]) was under 100 nM in each case. In addition, the concentration giving a half-maximal response (EC50) in assay [4] was under 100 nM.
In the case of `C=CC(=O)Nc1ccccc1Nc1ncc2cc(-c3c(Cl)c(OC)cc(OC(F)F)c3Cl)c(=O)n(C)c2n1` [Compound I-289], the IC50 in assay [2] is under 100 nM. Besides, the results for the GI50 in assay [3] and in assay [5] (setting [6]) were under 100 nM and 501 to 999 nM, respectively. Also, the EC50 in assay [4] was under 100 nM.
